The series concerns the target IRF4. The conditions noted are these: ASO.

Values joined by “and” are separate entries in the source; they are usually repeats but may differ in a detail not shown here. Identical values can stand only once. After the bases stand the sugars from the 5' end (letter, count) and the backbone: PS all phosphorothioate, else s phosphorothioate and o phosphodiester by linkage. Methylation of C is not given here. e = 2'-O-(2-methoxyethyl) (MOE); k = constrained ethyl (cEt); d = 2'-deoxy (DNA)

Take CAGTACAGTCCACTCC (sugars k3 d10 k3, PS): where the note is “MM.1R, 1 µM”, the target mRNA inhibition was determined as 5%.
For “ACTGTTACCGATGCTT (sugars kddddddddddkekek, PS)”, the target mRNA inhibition (MM.1R, 1 µM) amounted to 20%.
With CCGTGGTGAGCAAACG (sugars k3 d10 k3, PS), under “SK-MEL-28, 4 µM”, the target mRNA inhibition worked out at 32%.
Same read-out and setting: under CGCTCAACCAGTTCCT (sugars k3 d10 k3, PS) stands 28%; under CAGTCTCAAAAACGGG (sugars k3 d10 k3, PS), 51%.
For “AAGCAGTGATGTCAGG (sugars kkdddddddddekeke, PS)”, where the note is “MM.1R, 1 µM”, the target mRNA inhibition was 65%.
Consider CACTTTAAAAGTTGAC (sugars k3 d10 k3, PS), for which the target mRNA inhibition (SK-MEL-28, 4 µM) worked out at 28%.
Turning to AAACAGCCCACTGAGT (sugars k3 d10 k3, PS), the target mRNA inhibition (SK-MEL-28, 4 µM) was determined as 11%.
For the sequence ACCCACGAAGATTCAA (sugars k3 d10 k3, PS), for the setting “MM.1R, 1 µM”, the target mRNA inhibition is -17%.
Consider TACCGCATTGCTAGAT (sugars k3 d10 k3, PS), for which, under “SK-MEL-28, 4 µM”, the target mRNA inhibition was 23%.
Consider GAGCCGCCACATCAGC (sugars k3 d10 k3, PS), for which the target mRNA inhibition (SK-MEL-28, 4 µM) was 23%.
In the case of AAAAATATAACGGTGT (sugars k3 d10 k3, PS), where the note is “SK-MEL-28, 4 µM”, the target mRNA inhibition stood at 24%.
AAAAGTAACTGACACG (sugars k3 d10 k3, PS): the target mRNA inhibition (SK-MEL-28, 4 µM) came to 61%.
Take TACGAGAGGGTCTGAT (sugars k3 d10 k3, PS): the target mRNA inhibition (SK-MEL-28, 4 µM) is 0%.
Consider “AGTGATGTCAGGTTTT (sugars k2 d9 e3 k2, PS)”, for which the target mRNA inhibition (MM.1R, 1 µM) worked out at 25%.
As to CTCTACTGGAGTCAAG (sugars k3 d10 k3, PS), the target mRNA inhibition (SK-MEL-28, 4 µM) came out at 25%.
In the case of GTCACGCCCGCAAAAG (sugars k3 d10 k3, PS), the target mRNA inhibition (SK-MEL-28, 4 µM) was determined as 39%.
On the same count and under the same terms, under CAAGACCCCGTATCCC (sugars k3 d10 k3, PS) stands 44%.
As to TCATTAGAAAGCCCTC (sugars k3 d10 k3, PS), the target mRNA inhibition (MM.1R, 1 µM) was -19%.
Consider GCAAGTCTACAGCCCC (sugars k3 d10 k3, PS), for which the target mRNA inhibition was -7% (MM.1R, 0.0625 µM); 7% (MM.1R, 0.25 µM); 68% (MM.1R, 4 µM).
Consider GAGAATTCCAAACCTT (sugars k3 d10 k3, PS), for which the target mRNA inhibition worked out at 6% (MM.1R, 0.0625 µM); 1% (MM.1R, 0.074 µM); 13% (MM.1R, 0.222 µM); 5% (MM.1R, 0.25 µM); 38% (MM.1R, 0.666 µM); 15% (MM.1R, 1 µM). For the same sequence, the target mRNA inhibition was 69% (MM.1R, 2 µM); 55% (MM.1R, 4 µM); 76% (SK-MEL-28, 4 µM).
As to GTATTTTTCCGTTCCT (sugars k3 d10 k3, PS), the target mRNA inhibition (H929, 0.04 µM) was 33% and 14%; the target mRNA inhibition (KMS11, 0.2 µM) is 82% and 96%; the target mRNA inhibition (MM.1R, 0.0625 µM) is 34%; the target mRNA inhibition (MM.1R, 0.25 µM) was found to be 57%; the target mRNA inhibition (MM.1R, 1 µM) is 84% and 74%; the target mRNA inhibition (MM.1R, 4 µM) amounted to 93%.
Consider CGAATAGGACCCCTAT (sugars k3 d10 k3, PS), for which, where the note is “SK-MEL-28, 4 µM”, the target mRNA inhibition came to 9%.
For the sequence CAATAATCTCCCAGCA (sugars k3 d10 k3, PS), the target mRNA inhibition (SK-MEL-28, 4 µM) turned out to be 37%.
Turning to GGTAAACTGCCTTAGG (sugars k3 d10 k3, PS), under “SK-MEL-28, 4 µM”, the target mRNA inhibition is 25%.
For AAGCAGTCATCACTCT (sugars k3 d10 k3, PS), for the setting “SK-MEL-28, 4 µM”, the target mRNA inhibition is 38%.
Consider AACTAGCAGGGCACGC (sugars k3 d10 k3, PS), for which the target mRNA inhibition (MM.1R, 1 µM) came to 2%.
With CACAAGCAGTGATGTC (sugars k3 d10 k3, PS), the target mRNA inhibition (SK-MEL-28, 4 µM) worked out at 60%.
Same read-out and setting: next, CAACAGAGCTGAGAGT (sugars k3 d10 k3, PS): 20%.
Still for that read-out and setting: under GGAGAGCGGAGGCGGG (sugars k3 d10 k3, PS) stands 21%.
As for AACGGCCTGGAGGTGA (sugars k3 d10 k3, PS), the target mRNA inhibition (MM.1R, 1 µM) turned out to be 1%.
Consider CCCTTGCTGCAAATCC (sugars k3 d10 k3, PS), for which, where the note is “MM.1R, 1 µM”, the target mRNA inhibition is -4%.
For the sequence “ACTTTTAGAGAGGAGA (sugars kkdddddddddekeke, PS)”, the target mRNA inhibition (MM.1R, 1 µM) worked out at 52%.
As for TTGCAAGAGAACAGCC (sugars k3 d10 k3, PS), where the note is “SK-MEL-28, 4 µM”, the target mRNA inhibition was determined as 39%.
For the sequence CATGGTTACTAATTCC (sugars k3 d10 k3, PS), the target mRNA inhibition (MM.1R, 1 µM) turned out to be 25%.
Consider GTACACTTTGTACGGG (sugars k3 d10 k3, PS), for which, where the note is “SK-MEL-28, 4 µM”, the target mRNA inhibition worked out at 64%.
In the case of “ATGTTAGCCAATTCCT (sugars kkddddddddddkeke, PS)”, the target mRNA inhibition (MM.1R, 1 µM) was 20% and 15%.
Turning to “TGTGATAGCTGAGCTG (sugars kkdddddddddekeke, PS)”, the target mRNA inhibition (MM.1R, 1 µM) stood at 41%.
Consider CTTGCCAGTGGTGGCC (sugars k3 d10 k3, PS), for which the target mRNA inhibition (SK-MEL-28, 4 µM) was determined as 16%.
In the case of AATCTGGATGAGCTTA (sugars k3 d10 k3, PS), the target mRNA inhibition (MM.1R, 1 µM) is 4%.
Regarding CTCTGACAAGAACTGC (sugars k3 d10 k3, PS), under “SK-MEL-28, 4 µM”, the target mRNA inhibition is 30%.
As to CTATGCTAGAGAACAT (sugars k3 d10 k3, PS), for the setting “SK-MEL-28, 4 µM”, the target mRNA inhibition was determined as 23%.
As for GTTCCTTTTCAGAGTC (sugars k3 d10 k3, PS), the target mRNA inhibition (SK-MEL-28, 0.185 µM) was 16% and 4% and 3%; the target mRNA inhibition (SK-MEL-28, 4 µM) was 72%.
AGATATCCTGCAACTG (sugars k3 d10 k3, PS): for the setting “SK-MEL-28, 4 µM”, the target mRNA inhibition was -9%.
For TCACTTGCCGCCGCCT (sugars k3 d10 k3, PS), the target mRNA inhibition (SK-MEL-28, 4 µM) came out at 49%.
For GAAAAGAGCCGCCACA (sugars k3 d10 k3, PS), the target mRNA inhibition (SK-MEL-28, 4 µM) worked out at 7%.
Consider “TTATGTTAGCCAATTC (sugars kkdddddddddkdkdk, PS)”, for which the target mRNA inhibition (MM.1R, 1 µM) is 17% and 26%.
“ACAGTGACTTGCATCC (sugars kkdddddddddkekek, PS)”: under “MM.1R, 1 µM”, the target mRNA inhibition came to 32%.
Consider CACAACTGCAGTTTGA (sugars k3 d10 k3, PS), for which, for the setting “SK-MEL-28, 4 µM”, the target mRNA inhibition was 14%.
For the sequence TGTCACTATGCCTGAA (sugars k3 d10 k3, PS), the target mRNA inhibition (SK-MEL-28, 4 µM) stood at 27%.
Take “TTATGTTAGCCAATTC (sugars kkddddddddddkeke, PS)”: under “MM.1R, 1 µM”, the target mRNA inhibition was 11% and 16%.
As for ACCTGCATCGAGATCA (sugars k3 d10 k3, PS), the target mRNA inhibition (SK-MEL-28, 4 µM) stood at 53%.
As for “AAGCTTGATAAAGGCT (sugars kkkddddddddkekek, PS)”, the target mRNA inhibition (MM.1R, 1 µM) was -4%.
Consider “AGTTGTAAATGAGTCG (sugars kkkddddddddkekek, PS)”, for which the target mRNA inhibition (MM.1R, 0.074 µM) amounted to 18%; the target mRNA inhibition (MM.1R, 0.222 µM) amounted to 46%; the target mRNA inhibition (MM.1R, 0.666 µM) was 49%; the target mRNA inhibition (MM.1R, 1 µM) turned out to be 61%; the target mRNA inhibition (MM.1R, 2 µM) is 73%.
As to TTTCATATTTGGAGCC (sugars k3 d10 k3, PS), the target mRNA inhibition is, setting by setting: (MM.1R, 0.0625 µM) -3% and 21%; (MM.1R, 0.25 µM) 10% and 18%; (MM.1R, 1 µM) 25% and 45%; (MM.1R, 4 µM) 45% and 60%; (SK-MEL-28, 4 µM) 75%.
As for TGGATCTGAATTGTTA (sugars k3 d10 k3, PS), under “SK-MEL-28, 4 µM”, the target mRNA inhibition worked out at 55%.
For the sequence “GAAGCATTTTATCATC (sugars kkddddddddddkeke, PS)”, for the setting “MM.1R, 1 µM”, the target mRNA inhibition was -7%.
For the sequence “CTTGATAAAGGCTGAA (sugars kkdddddddddkekek, PS)”, the target mRNA inhibition (MM.1R, 1 µM) was determined as 12%.
On to GACGAAAACAGCCGCC (sugars k3 d10 k3, PS), for which the target mRNA inhibition (SK-MEL-28, 4 µM) turned out to be 62%.
Turning to ATTTTCACAAGCTGGG (sugars k3 d10 k3, PS), the target mRNA inhibition (SK-MEL-28, 4 µM) worked out at 39%.
With “AAGCATTTTATCATCC (sugars k2 d9 e3 k2, PS)”, where the note is “MM.1R, 1 µM”, the target mRNA inhibition is 21%.
Turning to TCCACTTTATCAAGAC (sugars k3 d10 k3, PS), where the note is “SK-MEL-28, 4 µM”, the target mRNA inhibition came to 65%.
Regarding TGGTAACTGTATGGAA (sugars k3 d10 k3, PS), under “SK-MEL-28, 4 µM”, the target mRNA inhibition worked out at 48%.
As to GAAGCATTTTATCATC (sugars k3 d10 k3, PS), the target mRNA inhibition (MM.1R, 1 µM) is 4%.
Consider CAAAAATGTCCCATCC (sugars k3 d10 k3, PS), for which, under “SK-MEL-28, 4 µM”, the target mRNA inhibition is 19%.
In the case of GAGATACTTGTACTGT (sugars k3 d10 k3, PS), the target mRNA inhibition reads like this: (MM.1R, 0.0625 µM) -2%; (MM.1R, 0.25 µM) 18%; (MM.1R, 1 µM) 49% and 57%; (MM.1R, 4 µM) 84%.
In the case of CCCGACACGCGCCGCT (sugars k3 d10 k3, PS), the target mRNA inhibition (SK-MEL-28, 4 µM) was 12%.
Take ATCACGAGGTTGCCGA (sugars k3 d10 k3, PS): the target mRNA inhibition (SK-MEL-28, 4 µM) amounted to 60%.
TAACTGGCTTCCAGGA (sugars k3 d10 k3, PS): under “SK-MEL-28, 4 µM”, the target mRNA inhibition came to 30%.
Take “AGTGATGTCAGGTTTT (sugars kdddddddddkekeke, PS)”: under “MM.1R, 1 µM”, the target mRNA inhibition amounted to 40%.
In the case of TTATAGTAGGTAAGAT (sugars k3 d10 k3, PS), for the setting “SK-MEL-28, 4 µM”, the target mRNA inhibition was 2%.
With AGGAATGAGGAAGCCG (sugars k3 d10 k3, PS), the target mRNA inhibition (SK-MEL-28, 4 µM) turned out to be 56%.
The same measure, in the same setting: next, GACTTAATTCTGGGTT (sugars k3 d10 k3, PS): 35%.
Regarding GGGTACATGGCAGTGG (sugars k3 d10 k3, PS), the target mRNA inhibition by setting is: (SK-MEL-28, 0.185 µM) 19%; (SK-MEL-28, 4 µM) 68%; (SK-MEL-28, 5 µM) 76%; (SK-MEL-28, 15 µM) 92%.
Take CTAAGGAGACAGTAAC (sugars k3 d10 k3, PS): the target mRNA inhibition (SK-MEL-28, 4 µM) is 29%.
As for TTATATATGACGACTT (sugars k3 d10 k3, PS), the target mRNA inhibition (SK-MEL-28, 4 µM) was found to be 35%.
Take “TGGTTGGCTGGTCTTT (sugars kkdddddddddekeke, PS)”: the target mRNA inhibition (MM.1R, 1 µM) was determined as 60%.
Turning to GGGAACAGGACCTGGT (sugars k3 d10 k3, PS), the target mRNA inhibition (SK-MEL-28, 4 µM) is 55%.
With CCAGGTTAAACAGGAA (sugars k3 d10 k3, PS), the target mRNA inhibition (SK-MEL-28, 4 µM) came to 6%.
For the sequence “GGTTGGCTGGTCTTTG (sugars kkddddddddddkeke, PS)”, the target mRNA inhibition is 18% (MM.1R, 0.0625 µM); 33% (MM.1R, 0.25 µM); 76% and 60% (MM.1R, 1 µM); 72% (MM.1R, 4 µM).
